# pIC50: −log10 of the molar value. Like-named read-outs stand apart in the source and are kept apart here.
# Legend:
# RS4;11 cells = assay: Cell growth inhibition, 4-day proliferation assay (WST-8); type: cell-based; conditions: Homo sapiens, 96 h; RS4;11 cells, 4 days, WST-8; read-out: RS4; 11 Cells IC50
# Procedure: The effect of representative Compounds of the Disclosure on cell viability was determined in a 4-day proliferation assay. Cells were maintained in the appropriate culture medium with 10% FBS at 37° C. and an atmosphere of 5% CO2. Also, the effect of a MDM2 inhibitor (Cpd. A; see Compound Example No. 22 of U.S. Pat. No. 8,629,141) and a known MDM2 degrader (Cpd. D, see Cpd. No. 175 of WO 2017/0176957) on cell viability in various cell lines is also included in Table 5. Cpd. […] A and D. The structure of Cpd. A is:
# Cells were seeded in 96-well flat bottom (Corning COSTAR, Corning, N.Y., cat #3595) at a density of 2,000-3,000 cells/well in 100 μL of culture medium. Compounds were serially diluted in the appropriate medium, and 100 μL of the diluted compounds were added to the appropriate wells of the cell plate. After the addition of compounds, the cells were incubated at 37° C. in an atmosphere of 5% CO2 for 4 days. Cell viability was determined using the WST (2-(2-methoxy-4-nitrophenyl)-3-(4-nitrophenyl)-5-(2,4-disulfophenyl)-2H-tetrazolium, monosodium salt) Cell Counting-8 Kit (Dojindo Molecular Technologies, Inc., Rockville, Md.) according to the manufacturers' instructions.
# WST-8 reagent was added to each well at a final concentration of 10% (v/v), and then the plates were incubated at 37° C. for 1-2 hours for color development. The absorbance was measured at 450 nm using a SPECTRAmax PLUS plate reader (Molecular Devices, Sunnyvale, Calif.). The readings were normalized to the DMSO-treated cells and the half maximal inhibitory concentration (IC50) was calculated by nonlinear regression (four parameters sigmoid fitted with variable slope, least squares fit, and no constraint) analysis using the GraphPad Prism 5 software (GraphPad Software, La Jolla, Calif.).
# [1] = Separate PK experiment, plasma concentrations after oral dose; type: in vivo; conditions: mouse, 50 mg/kg, mice
# Excerpt: In a separate PK experiment, the plasma concentrations of Cpd.
# [2] = read-out: Plasma concentration, Average / Mean
# [3] = read-out: Plasma concentration, Mouse 1
# [4] = read-out: Plasma concentration, Mouse 2
SMILES,pIC50 (RS4;11 cells),other results
"O=C1CCC(N2Cc3c(C#CC4CCN(C(=O)C56CCC(NC(=O)[C@@H]7NC8(CCCCC8)[C@@]8(C(=O)Nc9cc(Cl)ccc98)[C@H]7c7cccc(F)c7F)(CC5)CC6)CC4)cccc3C2=O)C(=O)N1 (stereo partly drawn) [Cpd. No. 14, (3′R,4′S,5′R)-6″-chloro-4′-(2,3-difluorophenyl)-N-(4-(4-((2-(2,6-dioxopiperidin-3-yl)-1-oxoisoindolin-4-yl)ethynyl)piperidine-1-carbonyl)bicyclo[2.2.2]octan-1-yl)-2″-oxodispiro[cyclohexane-1,2′-pyrrolidine-3′,3″-indoline]-5′-carboxamide]",7.96,"concentration at 1 h [1, 2]: 3300 ng/mL; concentration at 1 h [1, 3]: 4060 ng/mL; concentration at 1 h [1, 4]: 2550 ng/mL; concentration at 3 h [1, 2]: 7460 ng/mL; concentration at 3 h [1, 3]: 6880 ng/mL; concentration at 3 h [1, 4]: 8050 ng/mL; concentration at 6 h [1, 2]: 8240 ng/mL; concentration at 6 h [1, 3]: 7660 ng/mL; concentration at 6 h [1, 4]: 8810 ng/mL"
"O=C1CCC(N2Cc3c(C#CCCCNC(=O)[C@H]4CC[C@H](NC(=O)[C@@H]5NC6(CCCCC6)[C@@]6(C(=O)Nc7cc(Cl)ccc76)[C@H]5c5ccccc5F)CC4)cccc3C2=O)C(=O)N1 (stereo partly drawn) [Cpd. No. 25, (3′R,4′S,5′R)-6″-chloro-N-(4-((5-(2-(2,6-dioxopiperidin-3-yl)-1-oxoisoindolin-4-yl)pent-4-yn-1-yl)carbamoyl)cyclohexyl)-4′-(2-fluorophenyl)-2″-oxodispiro[cyclohexane-1,2′-pyrrolidine-3′,3″-indoline]-5′-carboxamide]",< 7.00,–
"O=C1CCC(N2Cc3c(NC4CCN(CCCNC(=O)C56CCC(NC(=O)[C@@H]7NC8(CCCCC8)[C@@]8(C(=O)Nc9cc(Cl)ccc98)[C@H]7c7cccc(Cl)c7F)(CC5)CC6)CC4)cccc3C2=O)C(=O)N1 (stereo partly drawn) [Cpd. No. 1, (3′R,4′S,5′R)-6″-chloro-4′-(3-chloro-2-fluorophenyl)-N-(4-((3-(4-((2-(2,6-dioxopiperidin-3-yl)-1-oxoisoindolin-4-yl)amino)piperidin-1-yl)propyl)carbamoyl)bicyclo[2.2.2]octan-1-yl)-2″-oxodispiro[cyclohexane-1,2′-pyrrolidine-3′,3″-indoline]-5′-carboxamide]",8.62,–
"CCN1[C@@H](C(=O)Nc2ccc(C(=O)N3CCC(C#Cc4cccc5c4CN(C4CCC(=O)NC4=O)C5=O)CC3)cc2)[C@H](c2cccc(Cl)c2F)[C@]2(C(=O)Nc3cc(Cl)ccc32)C12CCCCC2 (stereo partly drawn) [Cpd. No. 24, (3′R,4′S,5′R)-6″-chloro-4′-(3-chloro-2-fluorophenyl)-N-(4-(4-((2-(2,6-dioxopiperidin-3-yl)-1-oxoisoindolin-4-yl)ethynyl)piperidine-1-carbonyl)phenyl)-1′-ethyl-2″-oxodispiro[cyclohexane-1,2′-pyrrolidine-3′,3″-indoline]-5′-carboxamide]",8.18,–
"O=C1CCC(N2Cc3c(C#CC4CCN(C(=O)CN5CCN(C(=O)[C@@H]6NC7(CCCCC7)[C@@]7(C(=O)Nc8cc(Cl)ccc87)[C@H]6c6cccc(Cl)c6F)CC5)CC4)cccc3C2=O)C(=O)N1 (stereo partly drawn) [Cpd. No. 7, 3-(4-((1-(2-(4-((3′R,4′S,5′R)-6″-chloro-4′-(3-chloro-2-fluorophenyl)-2″-oxodispiro[cyclohexane-1,2′-pyrrolidine-3′,3″-indoline]-5′-carbonyl)piperazin-1-yl)acetyl)piperidin-4-yl)ethynyl)-1-oxoisoindolin-2-yl)piperidine-2,6-dione]",< 7.00,–
"CC1(C#Cc2cccc3c2CN(C2CCC(=O)NC2=O)C3=O)CCN(C(=O)C23CCC(NC(=O)[C@@H]4NC5(CCCCC5)[C@@]5(C(=O)Nc6cc(Cl)ccc65)[C@H]4c4cccc(Cl)c4F)(CC2)CC3)CC1 (stereo partly drawn) [Cpd. No. 31, (3′R,4′S,5′R)-6″-chloro-4′-(3-chloro-2-fluorophenyl)-N-(4-(4-((2-(2,6-dioxopiperidin-3-yl)-1-oxoisoindolin-4-yl)ethynyl)-4-methylpiperidine-1-carbonyl)bicyclo[2.2.2]octan-1-yl)-2″-oxodispiro[cyclohexane-1,2′-pyrrolidine-3′,3″-indoline]-5′-carboxamide]",8.54,–
"O=C1CCC(N2Cc3c(C#CC4CCN(C(=O)CN5CCC(NC(=O)[C@@H]6NC7(CCCCC7)[C@@]7(C(=O)Nc8cc(Cl)ccc87)[C@H]6c6cccc(Cl)c6F)CC5)CC4)cccc3C2=O)C(=O)N1 (stereo partly drawn) [Cpd. No. 5, (3′R,4′S,5′R)-6″-chloro-4′-(3-chloro-2-fluorophenyl)-N-(1-(2-(4-((2-(2,6-dioxopiperidin-3-yl)-1-oxoisoindolin-4-yl)ethynyl)piperidin-1-yl)-2-oxoethyl)piperidin-4-yl)-2″-oxodispiro[cyclohexane-1,2′-pyrrolidine-3′,3″-indoline]-5′-carboxamide]",8.51,–
"O=C1CCC(N2Cc3c(C#CC4CCN(C(=O)[C@H]5C[C@H](NC(=O)[C@@H]6NC7(CCCCC7)[C@@]7(C(=O)Nc8cc(Cl)ccc87)[C@H]6c6cccc(Cl)c6F)C5)CC4)cccc3C2=O)C(=O)N1 (stereo partly drawn) [Cpd. No. 12, (3′R,4′S,5′R)-6″-chloro-4′-(3-chloro-2-fluorophenyl)-N-((1r,3R)-3-(4-((2-(2,6-dioxopiperidin-3-yl)-1-oxoisoindolin-4-yl)ethynyl)piperidine-1-carbonyl)cyclobutyl)-2″-oxodispiro[cyclohexane-1,2′-pyrrolidine-3′,3″-indoline]-5′-carboxamide]",8.85,–
"CC(C)(C)C[C@@H]1N[C@@H](C(=O)N[C@H]2CC[C@H](C(=O)NCCCC#Cc3cccc4c3CN(C3CCC(=O)NC3=O)C4=O)CC2)[C@H](c2cccc(Cl)c2F)[C@]12C(=O)Nc1cc(Cl)ccc12 (stereo partly drawn) [Cpd. No. 3, (2′S,3R,4′S,5′R)-6-chloro-4′-(3-chloro-2-fluorophenyl)-N-((1r,4R)-4-((5-(2-(2,6-dioxopiperidin-3-yl)-1-oxoisoindolin-4-yl)pent-4-yn-1-yl)carbamoyl)cyclohexyl)-2′-neopentyl-2-oxospiro[indoline-3,3′-pyrrolidine]-5′-carboxamide]",9.21,–
"O=C1CCC(N2Cc3c(C#CCCCNC(=O)[C@H]4CC[C@H](NC(=O)[C@@H]5NC6(CCCCC6)[C@@]6(C(=O)Nc7cc(Cl)ccc76)[C@H]5c5ccccc5)CC4)cccc3C2=O)C(=O)N1 (stereo partly drawn) [Cpd. No. 27, (3′R,4′R,5′R)-6″-chloro-N-((1r,4R)-4-((5-(2-(2,6-dioxopiperidin-3-yl)-1-oxoisoindolin-4-yl)pent-4-yn-1-yl)carbamoyl)cyclohexyl)-2″-oxo-4′-phenyldispiro[cyclohexane-1,2′-pyrrolidine-3′,3″-indoline]-5′-carboxamide]",< 7.00,–
"CC1(C)CCC2(CC1)N[C@@H](C(=O)NC1CCN(CC(=O)NCCCC#Cc3cccc4c3CN(C3CCC(=O)NC3=O)C4=O)CC1)[C@H](c1cccc(Cl)c1F)[C@]21C(=O)Nc2cc(Cl)ccc21 (stereo partly drawn) [Cpd. No. 8, (3′R,4′S,5′R)-6″-chloro-4′-(3-chloro-2-fluorophenyl)-N-(1-(2-((5-(2-(2,6-dioxopiperidin-3-yl)-1-oxoisoindolin-4-yl)pent-4-yn-1-yl)amino)-2-oxoethyl)piperidin-4-yl)-4,4-dimethyl-2″-oxodispiro[cyclohexane-1,2′-pyrrolidine-3′,3″-indoline]-5′-carboxamide]",8.35,–
"O=C1CCC(N2Cc3c(C#CC4CN(C(=O)C56CCC(NC(=O)[C@@H]7NC8(CCCCC8)[C@@]8(C(=O)Nc9cc(Cl)ccc98)[C@H]7c7cccc(Cl)c7F)(CC5)CC6)C4)cccc3C2=O)C(=O)N1 (stereo partly drawn) [Cpd. No. 33, (3′R,4′S,5′R)-6″-chloro-4′-(3-chloro-2-fluorophenyl)-N-(4-(3-((2-(2,6-dioxopiperidin-3-yl)-1-oxoisoindolin-4-yl)ethynyl)azetidine-1-carbonyl)bicyclo[2.2.2]octan-1-yl)-2″-oxodispiro [cyclohexane-1,2′-pyrrolidine-3′,3″-indoline]-5′-carboxamide]",8.92,–
